Each structure is given as a SMILES string.

What is called melting point is the temperature of the solid-liquid transition. The molecule `Cc1ccc(Sc2ccc3c(c2)B(O)OC3)cc1` [C95, 6-(p-tolylthio)benzo[c][1,2]oxaborol-1(3H)-ol] had a melting point of 139 to 144 °C.
`OB1OCc2ccc(Sc3ccc(Cl)cc3)cc21` [C88, 6-(4-chlorophenylthio)benzo[c][1,2]oxaborol-1(3H)-ol]: the melting point fell in the range of 157 to 161 °C.
`O=S(=O)(c1ccccc1)N(c1ccc2c(c1)COB2O)S(=O)(=O)c1ccccc1` [C91, N-(1-hydroxy-1,3-dihydrobenzo[c][1,2]oxaborol-5-yl)-N-(phenylsulfonyl)benzenesulfonamide]: the melting point was in the range of 142 to 152 °C.
Regarding `N#CCCSc1cn(-c2ccc3c(c2)B(O)OC3)c2ccc(Cl)cc12` [C76, 3-(5-chloro-1-(1-hydroxy-1,3-dihydrobenzo[c][1,2]oxaborol-6-yl)-1H-indol-3-ylthio)propanenitrile], the melting point was over 225 °C.
In turn, `Cc1ccc2c(c1)COB2O` [C8, 5-methylbenzo[c][1,2]oxaborol-1(3H)-ol] displayed a melting point of 124 to 128 °C.
The molecule `OB1OCc2ccc(-n3ccc4cc(Cl)ccc43)cc21` [C75, 6-(5-chloro-1H-indol-1-yl)benzo[c][1,2]oxaborol-1(3H)-ol] displayed a melting point of 149 to 154 °C.
The molecule `O=S(=O)(Nc1ccc2c(c1)B(O)OC2)c1ccccc1` [C62, N-(1-hydroxy-1,3-dihydrobenzo[c][1,2]oxaborol-6-yl)benzenesulfonamide] registered a melting point of 175 to 184 °C.
`OB1OCc2cc(F)c(NCc3ccccc3)cc21` [C71, 6-(benzylamino)-5-fluorobenzo[c][1,2]oxaborol-1(3H)-ol] returned a melting point of 159 to 164 °C.
As to `OB1OCc2cccc(F)c21` [C86, 7-fluorobenzo[c][1,2]oxaborol-1(3H)-ol], the melting point fell in the range of 120 to 124 °C.
For `N#Cc1ccc(Oc2cccc3c2B(O)OC3)cc1` [C74, 4-(1-hydroxy-1,3-dihydrobenzo[c][1,2]oxaborol-7-yloxy)benzonitrile] the value was 148 to 153 °C; for `Cc1cccc2c1B(O)OC2` [C65, 7-methylbenzo[c][1,2]oxaborol-1(3H)-ol], 107 to 111 °C.
The same measure for `O=C(COc1ccc2c(c1)COB2O)N1CCN(c2ncccn2)CC1` [C47, 2-(1-hydroxy-1,3-dihydrobenzo[c][1,2]oxaborol-5-yloxy)-1-(4-(pyrimidin-2-yl)piperazin-1-yl)ethanone]: 190 to 195 °C.
In turn, `[O-][S+](c1ccc(Cl)cc1)c1ccc2c(c1)B(O)OC2` (stereo not shown) [C89, 6-(4-chlorophenylsulfinyl)benzo[c][1,2]oxaborol-1(3H)-ol] yielded a melting point of 154 to 161 °C.
The same measure for `CC(=O)Nc1ccc2c(c1)B(O)OC2` [C63, N-(1-hydroxy-1,3-dihydrobenzo[c][1,2]oxaborol-6-yl)acetamide]: 176 to 185 °C; for `O=C(COc1ccc2c(c1)COB2O)N1CCCCC1` [C46, 2-(1-hydroxy-1,3-dihydrobenzo[c][1,2]oxaborol-5-yloxy)-1-(piperidin-1-yl)ethanone]: 158 to 163 °C; for `OB1OCc2ccc(-n3ccc4ccccc43)cc21` [C55, 6-(1H-indol-1-yl)benzo[c][1,2]oxaborol-1(3H)-ol]: 135 to 140 °C.
`COc1ccc(Sc2ccc3c(c2)B(O)OC3)cc1` [C32, 6-(4-methoxyphenylthio)benzo[c][1,2]oxaborol-1(3H)-ol] registered a melting point of 95 to 100 °C.
`OB1OCc2ccc(Sc3ccc(C(F)(F)F)cc3)cc21` [C92, 6-(4-(trifluoromethyl)phenylthio)benzo[c][1,2]oxaborol-1(3H)-ol]: the melting point was in the range of 111 to 113 °C.
Consider `COc1ccc2c(ccn2-c2ccc3c(c2)B(O)OC3)c1` [C68, 6-(5-methoxy-1H-indol-1-yl)benzo[c][1,2]oxaborol-1(3H)-ol], for which the melting point lay within 120 to 124 °C.
Regarding `OB1OCc2ccc(N3CCN(c4ccccn4)CC3)cc21` [C48, 6-(4-(pyridin-2-yl)piperazin-1-yl)benzo[c][1,2]oxaborol-1(3H)-ol], the melting point lay in the range of 135 to 138 °C.
For `OB1OCc2ccc(Oc3ccccc3)cc21` [C21, 6-phenoxybenzo[c][1,2]oxaborol-1(3H)-ol] the value was 95 to 99 °C; for `OB1OCc2ccc(Oc3ccc(Cl)cc3)cc21` [C20, 6-(4-chlorophenoxy)benzo[c][1,2]oxaborol-1(3H)-ol], 119 to 130 °C; for `OCc1cccc2c1B(O)OC2` [C64, 7-(hydroxymethyl)benzo[c][1,2]oxaborol-1(3H)-ol], 241 to 250 °C.
Consider `O=[N+]([O-])c1cc2c(cc1F)COB2O` [C58, 5-fluoro-6-nitrobenzo[c][1,2]oxaborol-1(3H)-ol], for which the melting point was 162 to 167 °C.
For `CN(c1ccc2c(c1)COB2O)S(=O)(=O)c1ccccc1` [C30, N-(1-hydroxy-1,3-dihydrobenzo[c][1,2]oxaborol-5-yl)-N-methylbenzenesulfonamide], the melting point is 85 to 95 °C.
The molecule `OB1OCc2ccc(Oc3ccc(C(F)(F)F)cc3)cc21` [C87, 6-(4-(trifluoromethyl)phenoxy)benzo[c][1,2]oxaborol-1(3H)-ol] returned a melting point of 98 to 105 °C.
For `OB1OCc2ccc(-n3cc(Sc4ccccc4)c4cc(Cl)ccc43)cc21` [C80, 6-(5-chloro-3-(phenylthio)-1H-indol-1-yl)benzo[c][1,2]oxaborol-1(3H)-ol] the value was 145 to 151 °C.
The molecule `O=C(Nc1ccc2c(c1)B(O)OC2)c1ccccc1` [C52, N-(1-hydroxy-1,3-dihydrobenzo[c][1,2]oxaborol-6-yl)benzamide] showed a melting point of 186 to 193 °C.
In turn, `OB1OCc2ccc(Sc3cccs3)cc21` [C43, 6-(thiophen-2-ylthio)benzo[c][1,2]oxaborol-1(3H)-ol] had a melting point of 99 to 104 °C.
`OB1OCc2cc3c(cc21)OCO3` [C69, 5,6-methylenedioxybenzo[c][1,2]oxaborol-1(3H)-ol] had a melting point of 185 to 189 °C.
Turning to `N#Cc1cccc(Oc2ccc3c(c2)B(O)OC3)c1` [C19, 3-(1-hydroxy-1,3-dihydrobenzo[c][1,2]oxaborol-6-yloxy)benzonitrile], the melting point lay in the range of 146 to 149 °C.
In turn, `OB1OCc2ccc(NCc3ccccc3)cc21` [C77, 6-(benzylamino)benzo[c][1,2]oxaborol-1(3H)-ol] displayed a melting point of 126 to 133 °C.
Regarding `N#Cc1cccc(COc2ccc3c(c2)COB3O)c1` [C96, 3-((1-hydroxy-1,3-dihydrobenzo[c][1,2]oxaborol-5-yloxy)methyl)benzonitrile], the melting point lay in the range of 147 to 150 °C.
Consider `OB1OCc2ccc(-n3cc(Sc4ccccc4)c4ccccc43)cc21` [C66, 6-(3-(phenylthio)-1H-indol-1-yl)benzo[c][1,2]oxaborol-1(3H)-ol], for which the melting point is 159 to 163 °C.
`OB1OCc2ccc(Sc3ccccc3)cc21` [C28, 6-(phenylthio)benzo[c][1,2]oxaborol-1(3H)-ol]: the melting point lay within 121 to 124 °C.
Regarding `Nc1cc2c(cc1F)COB2O` [C70, 6-amino-5-fluorobenzo[c][1,2]oxaborol-1(3H)-ol], the melting point was 142 to 145 °C.
The same measure for `OB1OCc2cc3c(cc21)COB3O` [C60, 3,7-dihydro-1,5-dihydroxy-1H,3H-Benzo[2-c: 4,5-c′]bis[1,2]oxaborole]: over 250 °C.
The same measure for `COc1ccc2c(c1)c(SCCC#N)cn2-c1ccc2c(c1)B(O)OC2` [C73, 3-(1-(1-hydroxy-1,3-dihydrobenzo[c][1,2]oxaborol-6-yl)-5-methoxy-1H-indol-3-ylthio)propanenitrile]: 149 to 154 °C; for `COc1ccc(S(=O)(=O)c2ccc3c(c2)B(O)OC3)cc1` [C33, 6-(4-methoxyphenylsulfonyl)benzo[c][1,2]oxaborol-1(3H)-ol]: 180 to 192 °C; for `OB1OCc2ccc(Sc3ccc(F)cc3)cc21` [C44, 6-(4-fluorophenylthio)benzo[c][1,2]oxaborol-1(3H)-ol]: 135 to 138 °C.
The same measure for `O=S(=O)(c1ccc(Cl)cc1)c1ccc2c(c1)B(O)OC2` [C90, 6-(4-chlorophenylsulfonyl)benzo[c][1,2]oxaborol-1(3H)-ol]: 157 to 163 °C.
The molecule `OB1OCc2ccc(N(Cc3ccccc3)Cc3ccccc3)cc21` [C78, 6-(dibenzylamino)benzo[c][1,2]oxaborol-1(3H)-ol] came in with a melting point of 115 to 123 °C.
In turn, `CCCCC(=O)c1cccc(COc2ccc3c(c2)COB3O)c1` [C45, 1-(3-((1-hydroxy-1,3-dihydrobenzo[c][1,2]oxaborol-5-yloxy)methyl)phenyl)pentan-1-one] came in with a melting point of 96 to 98 °C.
In the case of `OB1OCc2ccc3ccccc3c21` [C11, naphtho[1,2-c][1,2]oxaborol-1(3H)-ol], the melting point lay in the range of 139 to 143 °C.
`CCOC(=O)COc1ccc2c(c1)COB2O` [C41, Ethyl 2-(1-hydroxy-1,3-dihydrobenzo[c][1,2]oxaborol-5-yloxy)acetate] had a melting point of 134 to 137 °C.
Molecule `O=C(O)COc1ccc2c(c1)COB2O` [C42, 2-(1-hydroxy-1,3-dihydrobenzo[c][1,2]oxaborol-5-yloxy)acetic acid] showed a melting point of 163 to 166 °C.
Regarding `CSc1ccc(Sc2ccc3c(c2)B(O)OC3)cc1` [C94, 6-(4-(methylthio)phenylthio)benzo[c][1,2]oxaborol-1(3H)-ol], the melting point is 117 to 120 °C.
For `COc1ccc2c(c1)COB2O` [C7, 5-methoxybenzo[c][1,2]oxaborol-1(3H)-ol], the melting point is 102 to 104 °C.
Turning to `[O-][S+](c1ccc(C(F)(F)F)cc1)c1ccc2c(c1)B(O)OC2` (stereo not shown) [C93, 6-(4-(trifluoromethyl)phenylsulfinyl)benzo[c][1,2]oxaborol-1(3H)-ol], the melting point was in the range of 79 to 88 °C.
The same measure for `OB1OCc2ccc(N3CCN(c4ccccc4)CC3)cc21` [C53, 6-(4-phenylpiperazin-1-yl)benzo[c][1,2]oxaborol-1(3H)-ol]: 159 to 161 °C; for `OCc1cc2c(cc1Br)COB2O` [C59, 5-bromo-6-(hydroxymethyl)benzo[c][1,2]oxaborol-1(3H)-ol]: over 257 °C; for `OB1OCc2ccc(N3CCOCC3)cc21` [C56, 6-morpholinobenzo[c][1,2]oxaborol-1(3H)-ol]: 128 to 132 °C.

(Values after patent US9566290B2, “Boron-containing small molecules” (Anacor Pharmaceuticals, Inc., priority 2005, dated 2017).)
